# Measurements: US9505730B2, “Mineralocorticoid receptor antagonists” (Merck Sharp & Dohme Corp., priority 2011, dated 2016)
# pIC50: −log10 of the molar value.
# Biological target: T1, full-length human Mineralocorticoid Receptor (MR) (Homo sapiens, UniProt P08235)
# T1 construct: host or cells: PathHunter CHO-K1 cells
# T1 sequence (P08235 1-984): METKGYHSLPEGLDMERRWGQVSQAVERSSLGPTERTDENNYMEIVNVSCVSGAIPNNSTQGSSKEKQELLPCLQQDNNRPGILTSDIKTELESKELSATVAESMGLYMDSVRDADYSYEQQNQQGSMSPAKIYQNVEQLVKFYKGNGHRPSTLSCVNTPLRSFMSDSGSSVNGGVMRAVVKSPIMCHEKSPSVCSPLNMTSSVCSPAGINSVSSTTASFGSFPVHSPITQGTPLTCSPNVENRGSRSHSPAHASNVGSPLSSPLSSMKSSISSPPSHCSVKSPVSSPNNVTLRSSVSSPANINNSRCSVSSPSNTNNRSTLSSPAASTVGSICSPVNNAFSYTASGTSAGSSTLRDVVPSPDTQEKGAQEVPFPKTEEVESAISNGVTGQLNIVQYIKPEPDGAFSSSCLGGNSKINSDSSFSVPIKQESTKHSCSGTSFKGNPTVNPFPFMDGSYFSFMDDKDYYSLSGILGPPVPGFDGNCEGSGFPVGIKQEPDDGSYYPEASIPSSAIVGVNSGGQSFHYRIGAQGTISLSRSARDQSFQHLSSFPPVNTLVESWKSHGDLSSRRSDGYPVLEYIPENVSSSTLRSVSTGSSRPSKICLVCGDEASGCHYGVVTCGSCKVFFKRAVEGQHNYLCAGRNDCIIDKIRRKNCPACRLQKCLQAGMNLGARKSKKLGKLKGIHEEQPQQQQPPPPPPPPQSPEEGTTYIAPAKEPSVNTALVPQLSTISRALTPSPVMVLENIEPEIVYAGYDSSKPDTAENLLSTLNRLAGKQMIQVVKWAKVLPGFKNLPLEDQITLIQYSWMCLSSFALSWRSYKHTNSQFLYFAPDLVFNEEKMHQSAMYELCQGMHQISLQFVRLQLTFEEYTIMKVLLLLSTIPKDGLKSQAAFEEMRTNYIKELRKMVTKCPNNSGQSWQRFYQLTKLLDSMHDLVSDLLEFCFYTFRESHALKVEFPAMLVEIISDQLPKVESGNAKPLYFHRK
# Test: human MR NH Pro assay (PathHunter Protein:Protein interaction assay, MR antagonism)
# Format: cell-based
# Details: PathHunter CHO-K1 cells overexpressing human MR; aldosterone 0.3 nM; 6 hours at 37° C.; luminescence; read-out: IC50 rating
# Description: The activity of the compounds of the present invention regarding mineralocorticoid receptor antagonism was evaluated using the following assay.
# Assessment of Mr Potency in Hmr Nh Pro Assay
# The human MR NH Pro assay is a commercially available PathHunter™ Protein: Protein interaction assay (DiscoveRx; http://www.discoverx.com/nhrs/prod-nhrs.php) that measures the ability of compounds to antagonize full-length human Mineralocorticoid Receptor (MR) binding to a coactivator peptide. PathHunter™ CHO-K1 cells that overexpress human MR (Cat #93-0456C2, Lot No: 09B0913) were cultured in growth media (F12K w/Glutamine and phenol red (Gibco 11765-047) supplemented with 10% HI FBS (Gibco 16000); 0.25 mg/ml Hygromycin in PBS (Invitrogen 10687-010, 50 mg/ml); 100 I.U./mL and 100 μg/mL Pen/Strep (Gibco 15140-122); 0.6 mg/mL Geneticin).
# Compounds were assessed for MR antagonist activity by incubating the cells with a titrating dose of compound in F12K w/Glutamine and phenol red culture media (Invitrogen 11765-047) supplemented with 1% Charcoal/Dextran Treated FBS (Hyclone #SH30068.01) and aldosterone (0.3 nM) for 6 hours at 37° C.
# • F12K w/Glutamine and phenol red (Gibco 11765-047) • 10% HI FBS (Gibco 16000) • 0.25 mg/ml Hygromycin in PBS (Invitrogen 10687-010, 50 mg/ml) • 100 I.U./mL and 100 μg/mL Pen/Strep (Gibco 15140-122) • 0.6 mg/mL Geneticin (Gibco 10131, 50 mg/ml) 2. Assay media: • F12K w/Glutamine and phenol red (Invitrogen 11765-047) • 1% Charcoal/Dextran Treated FBS (Hyclone #SH30068.01) 3. 3× PathHunter Detection Reagents (Cat#93-0001) (need ˜6 ml/plate). […] Control Agonist: Aldosterone: Sigma cat #A9477 • Prepare stock solution—10 μM in DMSO kept at −20 C • for assay, dilute in assay media to 1.8 or 6 nM (6× of final concentration=about 0.3 nM to about 1.0 nM) 5. Cell line: PathHunter CHO-K1 MR cells Cat #93-0456C2, Lot No: 09B0913, from operation liquid nitrogen stock. 6. Control Antagonist: Spironolactone: Sigma #S-3378 and Eplerenone Sigma #107724-20-9 (10 mM stock concentration also prepared in DMSO and stored at −20° C.). Methods: Assay Set up and Calculations: • 1. Cells were grown in F12+FBS+Hygromycin+pen/strep+Genetin. • 2. Cells were collected with 0.05% trypsin and the cell suspension was spun and resuspended in a volume of F12+1.5% CD-FBS and counted. • 3. The cells were resuspended to 4×10^5 cells/mL. • 4. Cells were (25 μL/well) added to the wells of a 384 well plate. • 5. The plate was then incubated at 37° C. over night in a humidified incubator with 5% CO2. • 6. Test compounds were titrated starting at 4.4 mM, 10-point titration in 1:3 dilution. • 7. Aldosterone was diluted in assay media to 1.8 nM or 6 nM from 10 μM stock (final concentration to be about 0.3 nM to about 1.0 nM). Protocol for 384 well plate format: 6 hr treatment: • 1. Plated 10K exponentially growing cells/well (25 μL) resuspended in assay media to each well using the Multidrop (Thermo Electron). Use white wall, clear bottom assay plates (Costar #3570) and incubate overnight at 37° C., 5% CO2. • 2. 0.25 μL 120× test compound (final DMSO concentration should be <1%) was added to each well n=2, 10 point titrations starting at 36.7 μM final concentration. • 3. 5 μL 6× agonist (final aldosterone concentration should be about 0.3 nM to about 1.0 nM) was added to all wells using the PlateMate Plus.
# (ThermoFisher) (except those wells in columns 23 and 24) • 4. 5 μL of assay media was added to all wells in column 23 and 24. • 5. Plates were incubated 6 hrs at 37° C., 5% CO2. • 6. 15 μL 3× DiscoveRx detection reagent was added to each well. • 7. Plates were incubated for 1 hour at room temperature (plates stored in the dark). • 8. Plates were read on Envision (PerkinElmer) luminesence plate reader and analyzed using ADA. LC/MS method: (LC2M_Low/Med_Positive mode). LC Conditions: 5-98% CH3CN/H2O+v 0.1% TFA over 1.25 min; Flow Rate=1.5 mL/min, UV wavelength 254 nm; Column: Waters XTerra® MS C18 3.5 μm 2.1×20 mm IS™
row,pIC50,SMILES
1,> 7.00,"COc1cc(CNC(=O)[C@@]2(Cc3ccccc3)OC(=O)N([C@H](C)C3CCCCC3)C2=O)cc(OC)c1 [Compound 10, (5R)-5-Benzyl-3-[(1R)-1-cyclohexylethyl]-N-(3,5-dimethoxybenzyl)-2,4-dioxo-1,3-oxazolidine-5-carboxamide]"
2,> 7.00,"COc1cc(CNC(=O)[C@@]2(Cc3ccccc3)OC(=O)N([C@H](C)c3ccc(F)cc3)C2=O)cc(OC)c1 [Compound 8, (5R)-5-Benzyl-N-(3,5-dimethoxybenzyl)-3-[(1R)-1-(4-fluorophenyl)ethyl]-2,4-dioxo-1,3-oxazolidine-5-carboxamide]"
3,> 7.00,"COc1cc(CNC(=O)[C@@]2(Cc3ccccc3)OC(=O)N([C@@H]3CCc4ccccc43)C2=O)cc(OC)c1 [Compound 11, (5R)-5-Benzyl-3-[(1R)-2,3-dihydro-1H-inden-1-yl]-N-(3,5-dimethoxybenzyl)-2,4-dioxo-1,3-oxazolidine-5-carboxamide]"
4,6.30 to 7.00,"C[C@H](c1ccccc1)N1C(=O)O[C@](Cc2ccccc2)(C(=O)N2Cc3ccccc3C2)C1=O [Compound 22, (5R)-Benzyl-5-(1,3-dihydro-2H-isoindol-2-ylcarbonyl)-3-[(1R)-1-phenylethyl]-1,3-oxazolidine-2,4-dione]"
